Experimental data from ChEMBL document CHEMBL1201862, “PubChem BioAssay data set” (2004).
Calls of active or inactive are those of the source. Rule as the data show it: actives have a measured IC50 and inactives only a lower limit.

These molecules were tested against Envelope glycoprotein gp160 (Human immunodeficiency virus 1, UniProt Q6QLK5) (assay: inhibitors of HIV fusion peptide binding, primary screen, biochemical, uHTS, fluorescence dequenching (AID 1986)).
Chain of Envelope glycoprotein gp160 (Q6QLK5 whole entry, the tested form may be a part): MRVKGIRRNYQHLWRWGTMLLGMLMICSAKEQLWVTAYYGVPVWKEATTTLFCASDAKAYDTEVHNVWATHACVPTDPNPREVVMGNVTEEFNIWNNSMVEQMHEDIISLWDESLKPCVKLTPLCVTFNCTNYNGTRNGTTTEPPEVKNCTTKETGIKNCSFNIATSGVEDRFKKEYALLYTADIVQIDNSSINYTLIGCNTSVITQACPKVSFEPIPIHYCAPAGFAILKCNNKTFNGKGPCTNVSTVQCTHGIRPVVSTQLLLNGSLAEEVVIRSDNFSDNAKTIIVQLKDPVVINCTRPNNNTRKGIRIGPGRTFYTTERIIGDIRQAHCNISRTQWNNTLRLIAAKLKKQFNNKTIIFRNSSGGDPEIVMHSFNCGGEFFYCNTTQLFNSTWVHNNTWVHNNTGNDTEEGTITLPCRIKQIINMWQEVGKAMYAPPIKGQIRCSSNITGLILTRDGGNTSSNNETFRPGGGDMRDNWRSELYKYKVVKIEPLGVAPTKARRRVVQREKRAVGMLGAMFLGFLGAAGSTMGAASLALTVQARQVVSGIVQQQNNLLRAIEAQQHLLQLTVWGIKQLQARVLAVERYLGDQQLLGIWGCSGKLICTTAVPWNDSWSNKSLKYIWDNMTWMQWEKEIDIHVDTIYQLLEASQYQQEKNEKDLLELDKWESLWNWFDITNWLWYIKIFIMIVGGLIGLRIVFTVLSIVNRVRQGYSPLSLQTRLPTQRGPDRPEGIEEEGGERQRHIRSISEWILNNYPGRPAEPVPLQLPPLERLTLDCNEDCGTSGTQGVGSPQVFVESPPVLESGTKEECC
In the case of `O=C(O)c1cccc(NC(=S)N/N=C/c2ccccc2OCc2cccc(Br)c2)c1`, the IC50 is reported as 13.2 µM (active). In the case of `COc1cc(/C=C2\C(=N)N3N=C(S(C)(=O)=O)SC3=NC2=O)cc(OC)c1OCCOc1ccccc1C`, the IC50 is reported as 14.6 µM (active). For `Cc1ccc(-n2cccc2/C=C2/C(=N)N3C(=NC2=O)SN=C3S(C)(=O)=O)cc1Cl`, the IC50 was 6.32 µM (active). With `O=C1NN(c2ccc(Cl)c(Cl)c2)C(=O)/C1=C/c1ccc(-c2ccccc2C(=O)O)o1` the IC50 was 15.7 µM (active).
